A word on the IC50: it is the concentration at which inhibition is half-maximal.

Like-named read-outs stand apart in the source and are kept apart here. Some results are limits rather than exact numbers.

For test [1], the target named is T1, ROCK-1 (Homo sapiens, UniProt Q13464).
T1 construct: purchased Promega
Kind of test: ADP-Glo kinase assay, ROCK-1 inhibition. It is filed as biochemical. The conditions noted are these: for inhibition at 10 µM: read-out: % inh. at 10 µM ROCK-1. An excerpt:
We evaluated the inhibitory activity of the final compounds against GSK-3β, IKK-β, and ROCK-1 kinases using the commercially available ADP-Glo™ kinase assay. The method was based on the measurement of luminescence that correlates with kinase activity. […] The latter are inhibitors of the kinases of interest and were integral to the design of our studies.
Promega’s Kinase Enzyme Systems (Promega; Madison, WI, USA) were used to determine the activities of the tested compounds against the human recombinant kinases GSK-3β, IKK- β, and ROCK-1. The assays were performed according to the provided manufacturer’s instruction, based on the optimized conditions of the enzymatic reactions, using the low-volume, white polystyrene, 384-well plates. The ADP-Glo™ Assay (Promega; Madison, WI, USA) was used for bioluminescent detection of the kinase activity. Stock solutions of the tested compounds in DMSO (1mM) were diluted with the Kinase Assay Buffer before use (40 mM Tris, pH 7.5, enriched with 50 µM dithiothreitol; DTT), giving the final desired concentrations. The kinase enzymes, substrates, and ATP solutions were also diluted with the assay buffer prior to use. The GSK-3β, IKK-β, and ROCK-1 substrates were derived from human muscle glycogen synthase 1, human IkBA, and human 40S ribosomal protein S6, respectively. […] The DMSO solution (1% in well) was used in the blank samples instead of the tested inhibitors. After the incubation period, ATP (25 µM per well in the case of GSK-3β and IKK-β kinases; 5 µM per well in the case of ROCK-1 kinase) and an appropriate enzyme substrate (0.2 µg/µL in well) were added to start the enzymatic reaction. The reaction mixture was kept at room temperature for 1 h; then, the ADP-Glo™ reagent was added, to terminate the kinase reaction and deplete any remaining ATP. After 40 min, a second reagent (Kinase Detection Reagent) was applied to convert the obtained ADP to ATP and to generate light from the newly synthesized ATP using a luciferase/luciferin reaction. The mixture was incubated for another 30 min at room temperature before the luminescence was measured. The calculations of the percent of kinases’ inhibition by tested compounds were based on the equation 100 − (S/B) × 100; S and B are the enzyme activities with and without the tested sample, respectively. […]. IC50 results were obtained using nonlinear regression (GraphPad Prism 9; GraphPad Software, San Diego, CA, USA) by plotting the residual enzyme activities against the applied inhibitor concentration. Each compound was evaluated in two independent experiments, with every data point collected in duplicate.
On the technique in general: In ADP-Glo the light output rises with the ADP produced.

In test [2] the test system is NO release, LPS-treated BV-2 cells. Kind of test: NO release in LPS-treated BV-2 cells (DAN fluorometric assay). It is filed as cell-based, mouse. The settings on record: LPS 100 ng/mL, 18 h. From the text: (§1) Lipopolysaccharide (LPS) is a potent pro-inflammatory stimulus triggering the extensive production of inflammatory mediators, including cytokines and chemokines. Consequently, it finds widespread application in inducing in vitro and in vivo models of sepsis and inflammation, including neuroinflammation. In this study, we employed LPS in the BV-2 cell line and assessed the impact of the selected compounds on the levels of NO, IL-6, and TNF-α production (Figure 4B–D). […] Moreover, all compounds surpassed the reference compound in these assays.
(§2) The cells were pretreated with tested compounds for 1 h. After this time, lipopolysaccharide (100 ng/mL) was added and the resulting mixture was incubated for 18 h. Next, the culture supernatant was acquired to measure the levels of nitric oxide (NO), IL-6, and TNF-α, according to the following procedures.
The NO level in the culture supernatants was measured using 2,3-diaminonaphthalene (DAN) reagent, according to the method of Nussler et al.. After 15 min of incubation at room temperature, the fluorescence intensity (EX 360; EM 440 nm) was measured using a microplate reader POLARstar Omega, (BMG Labtech). The values of nitric oxide were calculated as a percentage of control (maximal response of LPS).
(§3) Figure 4 (A) Results of the okadaic-acid-induced hyperphosphorylation assay. The HT-22 cells were pretreated for 3 h with okadaic acid (400 nM), and the tested compounds, at the increasing non-cytotoxic concentrations, were determined using a viability assay (or with the vehicle, 10 µM DMSO in the control sample). Cell viability was measured using the PrestoBlue^TM cell viability reagent. (B–D) Results of anti-inflammatory assays in LPS-treated (100 ng/mL) BV-2 cell line. The final compounds and references were tested at increasing non-cytotoxic concentrations and with DMSO as a control sample. NO release was measured using a fluorometric assay with 2,3-diaminonaphthalene (DAN). The IL-6 and TNF-α levels were measured using an LANCE Ultra TR-FRET Detection Kit (Perkin Elmer). Statistical analysis was performed using GraphPad Prism 9.0.0. All values are expressed as mean with SD. Differences among groups were evaluated using one-way ANOVA followed by post hoc analysis (Dunnett’s multiple comparison tests) and were considered statistically significant if p < 0.05 (* p < 0.05, ** p < 0.01, and **** p < 0.0001).

Test [3] deals with okadaic acid treated HT-22 cells. Kind of test: Okadaic-acid-induced tau hyperphosphorylation cell model, cell viability. The format is cell-based, mouse. The conditions noted are these: okadaic acid 400 nM; for cell viability after okadaic acid (in words): 3 h, viability after 24 h; for activity in okadaic-acid-induced hyperphosphorylation assay (in words): 10, 1, and 0.1 µM. As for the experimental part: We evaluated the neuroprotective properties of the selected compounds in an okadaic-acid-induced tau hyperphosphorylation cell model. Okadaic acid, acting as a phosphatase inhibitor, induces hyperphosphorylation and accumulation of neurofilaments in the cells, thereby mirroring the hyperphosphorylated, tau-induced neurodegeneration observed in AD brain [55, 56]. […] Compounds 50 and 58 were not active.
HT-22 cells were seeded into 96-well plates at a density of 2 × 10^4 cells per well. Okadaic acid (Merck) was added at a concentration of 400 nM and incubated for 3 h. After this time, 10, 1, and 0.1 µM of tested compounds were added and incubated in the aseptic conditions (37 °C, 5% CO2). Cell viability was determined using Presto Blue assay after 24 h. All data were normalized to the percentage survival of vehicle control. Data are represented as mean SD versus vehicle control.
as §3

Test [4] relates to IL-6 level, LPS-treated BV-2 cells. The test can be described thus: IL-6 level in LPS-treated BV-2 cells (LANCE Ultra TR-FRET). It is filed as cell-based, mouse. The settings on record: LPS 100 ng/mL, 18 h.
From the text: as §1, §2
IL-6 and TNF-α levels in the culture supernatants were measured using the LANCE Ultra TR-FRET Detection Kit (Perkin Elmer, Waltham, MA, USA), according to the manufacturer’s protocol. Each cytokine detection was performed separately in a 384-well plate, following the kit instructions. Samples were added at 15 μL/well to a 384-well plate and then premixed antibody solution was added at 5 μL/well. After 1 h of incubation of IL-6 and 3 h of incubation of TNF-α in the dark at 22 °C, the plates were read using an EnVision plate reader (Perkin Elmer) with the excitation wavelength at 320 nm, the donor emission were read at 615 nm, and the acceptor emission were read at 660 nm. The values of IL-6 and TNF-α levels were calculated as a percentage of control (maximal response of LPS).
as §3

T1 sequence (Q13464 whole entry): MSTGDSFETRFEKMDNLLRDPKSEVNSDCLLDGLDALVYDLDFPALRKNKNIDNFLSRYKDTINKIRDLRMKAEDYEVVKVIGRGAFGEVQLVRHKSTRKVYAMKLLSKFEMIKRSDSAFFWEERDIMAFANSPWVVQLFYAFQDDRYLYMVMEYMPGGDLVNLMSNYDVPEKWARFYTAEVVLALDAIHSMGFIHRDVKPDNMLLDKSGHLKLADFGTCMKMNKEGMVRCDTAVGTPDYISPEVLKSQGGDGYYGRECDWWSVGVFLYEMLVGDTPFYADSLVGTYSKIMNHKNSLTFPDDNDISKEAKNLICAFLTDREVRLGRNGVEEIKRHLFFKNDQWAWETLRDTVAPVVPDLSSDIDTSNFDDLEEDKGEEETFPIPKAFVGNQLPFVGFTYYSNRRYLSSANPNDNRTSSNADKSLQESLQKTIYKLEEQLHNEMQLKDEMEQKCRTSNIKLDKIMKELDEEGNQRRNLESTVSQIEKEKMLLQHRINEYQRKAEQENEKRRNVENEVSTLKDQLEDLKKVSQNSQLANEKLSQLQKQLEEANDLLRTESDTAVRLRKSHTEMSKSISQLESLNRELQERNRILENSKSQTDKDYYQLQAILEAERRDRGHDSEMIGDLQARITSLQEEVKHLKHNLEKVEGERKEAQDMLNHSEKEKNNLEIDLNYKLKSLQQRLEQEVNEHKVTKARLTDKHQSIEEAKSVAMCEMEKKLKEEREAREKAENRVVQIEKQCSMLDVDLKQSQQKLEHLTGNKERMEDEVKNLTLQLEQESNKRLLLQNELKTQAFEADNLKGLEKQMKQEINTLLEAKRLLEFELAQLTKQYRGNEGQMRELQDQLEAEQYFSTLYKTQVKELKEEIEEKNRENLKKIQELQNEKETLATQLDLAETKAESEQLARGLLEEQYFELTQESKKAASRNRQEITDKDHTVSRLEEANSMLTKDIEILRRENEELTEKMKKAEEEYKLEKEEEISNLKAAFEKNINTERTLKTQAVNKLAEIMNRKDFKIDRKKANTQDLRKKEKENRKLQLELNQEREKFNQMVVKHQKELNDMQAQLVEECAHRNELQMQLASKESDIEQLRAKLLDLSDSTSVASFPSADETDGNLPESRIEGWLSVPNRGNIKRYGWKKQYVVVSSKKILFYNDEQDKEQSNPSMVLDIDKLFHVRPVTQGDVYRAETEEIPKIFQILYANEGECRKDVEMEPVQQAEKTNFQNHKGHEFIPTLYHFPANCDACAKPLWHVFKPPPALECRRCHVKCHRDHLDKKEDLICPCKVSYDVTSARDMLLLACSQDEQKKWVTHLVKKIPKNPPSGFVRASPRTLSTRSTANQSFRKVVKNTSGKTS

The compound `O=C1NC2(CCCC2)Nc2cc(-c3ccnc(NC(=O)C4CC4)c3)sc21` [Compound 60, N-(4-(4’-Oxo-3’,4’-dihydro-1’H-spiro[cyclopentane-1,2’-thieno [3,2-d]pyrimidin]-6’-yl)pyridin-2-yl)cyclopropanecarboxamide] registered an IC50 in test [1] (mean ± SEM, ATP 5 µM) of 1360 ± 79 nM.

In the case of `NC(=O)Nc1cc(-c2ccnc(NC(=O)C3CC3)c2)sc1C(N)=O` [Compound 49, 5-(2-(Cyclopropanecarboxamido)pyridin-4-yl)-3-ureidothiophene-2-carboxamide], the “NO level (in words)” value in test [2] (10 µM) was “significantly decreased”. Moreover, the “cell viability after okadaic acid (in words)” value in test [3] (1 µM compound) and in test [3] (10 µM compound) was “increased cell viability” in each case. Moreover, the “IL-6 level (in words)” value in test [4] (1 µM) is “reduced IL-6 levels”; in test [4] (10 µM), “significantly decreased”.

For `O=C1NC2(CCOC2)Nc2cc(-c3ccnc(NC(=O)C4CC4)c3)sc21` (stereo not shown) [Compound 62, N-(4-(4′-Oxo-3′,4,4′,5-tetrahydro-1′H,2H-spiro[furan-3,2′-thieno [3,2-d]pyrimidin]-6′-yl)pyridin-2-yl)cyclopropanecarboxamide], the IC50 in test [1] amounted to 2300 nM; in test [1] (mean ± SEM, ATP 5 µM), 2310 ± 131 nM. Further, the “NO level (in words)” value in test [2] (1 µM) is given as “reduced NO levels”; in test [2] (10 µM), “significantly decreased”. In addition, in test [3] (10 µM compound), the “cell viability after okadaic acid (in words)” value is recorded as “increased cell viability”. Besides, in test [4] (10 µM), the “IL-6 level (in words)” value was “significantly decreased”.

For `NC(=O)Nc1cc(-c2ccnc(NC(=O)C3CCC3)c2)sc1C(N)=O` [Compound 50, 5-(2-(Cyclobutanecarboxamido)pyridin-4-yl)-3-ureidothiophene-2-carboxamide], in test [1] (1 μM (footnote), mean ± SD, read-out: % inh. ROCK-1, tested at inhibitor screening concentration of 1 μM), the inhibition at 1 µM was under 10%. The “NO level (in words)” value in test [2] (1 µM) is given as “reduced NO levels”; in test [2] (10 µM), “significantly decreased”. Besides, the “activity in okadaic-acid-induced hyperphosphorylation assay (in words)” value in test [3] is reported as “not active”. The “IL-6 level (in words)” value in test [4] (10 µM) is given as “significantly decreased”.

As for `CC1(C)NC(=O)c2sc(-c3ccnc(NC(=O)C4CC4)c3)cc2N1` [Compound 40, N-(4-(2,2-Dimethyl-4-oxo-1,2,3,4-tetrahydrothieno [3,2-d]pyrimidin-6-yl)pyridin-2-yl)-cyclopropanecarboxamide], half-maximal inhibition in test [1] (mean ± SEM, ATP 5 µM) (IC50) was put at 1760 ± 109 nM.

In the case of `CC(C)C(=O)Nc1cc(-c2cc3c(s2)C(=O)NC(C)(C)N3)ccn1` [Compound 39, N-(4-(2,2-Dimethyl-4-oxo-1,2,3,4-tetrahydrothieno [3,2-d]pyrimidin-6-yl)pyridin-2-yl)isobutyramide], the inhibition at 10 µM in test [1] (mean ± SD) turned out to be 32%.

Regarding `CC1(C)NC(=O)c2sc(-c3ccnc(NC(=O)C4CCC4)c3)cc2N1` [Compound 41, N-(4-(2,2-Dimethyl-4-oxo-1,2,3,4-tetrahydrothieno [3,2-d]pyrimidin-6-yl)pyridin-2-yl)-cyclobutanecarboxamide], in test [1] (mean ± SD), the inhibition at 10 µM was 48%.

Turning to `CC(C)C(=O)Nc1cc(-c2cc(NC(N)=O)c(C(N)=O)s2)ccn1` [Compound 48, 5-(2-Isobutyramidopyridin-4-yl)-3-ureidothiophene-2-carboxamide], in test [1] (mean ± SD), the inhibition at 10 µM is under 10%.

Consider `NC(=O)Nc1cc(-c2cccc(NC(=O)C3CC3)c2)sc1C(N)=O` [Compound 58, 5-(3-(Cyclopropanecarboxamido)phenyl)-3-ureidothiophene-2-carboxamide], for which the “activity in okadaic-acid-induced hyperphosphorylation assay (in words)” value in test [3] is on record as “not active”.

For the origin of these results see article PMC11173485, “Connecting GSK-3β Inhibitory Activity with IKK-β or ROCK-1 Inhibition to Target Tau Aggregation and Neuroinflammation in Alzheimer’s Disease—Discovery, In Vitro and In Cellulo Activity of Thiazole-Based Inhibitors” (Molecules, 2024).
